Test results reported in US9937174B2, “Combinations of histone deacetylase inhibitors and bendamustine” (priority 2014, dated 2018).
Like-named read-outs stand apart in the source and are kept apart here.

Legend:
[1] = test system: Jeko-1; experiment: cells; type: cell-based; conditions: Homo sapiens
Method: (§1) Ricolinostat was administered to each cell line at various concentrations (0.01, 0.1, 1, 5, and 10 μM), and cell viability was measured at 24, 48, and 72 hours.
(§2) Bendamustine was administered to each cell line at various concentrations (25, 50, 100, 200, and 300 μM), and cell viability was measured at 24 and 48 hours.
(§3) The effect of the drugs on each cell line was determined, and the combination index (CI) was measured. A CI<1 means synergy; a CI=1 means an additive effect; and a CI>1 means antagonism.

[2] = test system: WSU-NHL; experiment: cells; type: cell-based; conditions: Homo sapiens
Method: as §1, §2, §3

[3] = test system: Hut-78; experiment: cells; type: cell-based; conditions: Homo sapiens
Method: as §1, §2, §3

[4] = test system: lymphoma cell lines; experiment: cells; type: cell-based
[5] = test system: lymphoma cell lines (WSU-NHL, Hut-78, Jeko-1); experiment: Cell cycle analysis by flow cytometry; conditions: 24 h
Method: The bars of M1, M2, M3 and M4 indicate the sub-G0/G1, G0/G1, S and G2/M phases, respectively.
All values represent the mean±SD of three independent experiments.
(§5) Apoptosis, reactive oxygen species (ROS), cell cycle analysis, and Bcl-2 protein expression were measured by flow cytometry.

[6] = test system: lymphoma cell lines (WSU-NHL, Hut-78, Jeko-1); type: cell-based; conditions: flow cytometry, 24-48 h
Method: In FIG. 5A WSU-NHL cells were treated with either ricolinostat, bendamustine, or ricolinostat and bendamustine at the indicated concentrations. After 24 hours, the cells were fixed and stained with propidium iodide, and were analyzed by flow cytometry. […] This effect was enhanced by the combination with bendamustine (FIGS. 5C and 5D).

[7] = test system: WSU-NHL, Hut-78 and Jeko-1 cells; experiment: Methylcellulose clonogenic assay; type: cell-based; conditions: 24 h liquid culture, colonies counted after 10 days
Method: FIG. 2D and FIG. 2E show effects of ricolinostat alone and in combination with bendamustine on clonogenic survival. WSU-NHL, Hut-78 and Jeko-1 cells were first incubated with ricolinostat alone (1, 5, 10 μM) (C) and subsequently in combination with bendamustine (D) in liquid culture for 24 h. Treated cells were incubated in methylcellulose and colonies consisting of more 50 cell were counted after 10 days. The relative percentage with respect to control cells are shown and represent the mean±SD of three separate experiments.

[8] = test system: reactive oxygen species (ROS); experiment: ROS generation by flow cytometry and Trx1 western blot; conditions: 24 h and 48 h
Method: All data are expressed as the mean±SD of triplicate culture.
H2O2 was used as a positive control.
as §5

[9] = biological target: T1, HDAC6 (Homo sapiens, UniProt Q9UBN7); experiment: Western blot of HDAC6 and acetylated α-tubulin; type: cell-based; conditions: 24 h
T1 construct: endogenous in cells; host or cells: WSU-NHL, Hut-78, Jeko-1 lymphoma cell lines
T1 sequence (Q9UBN7 1-1215): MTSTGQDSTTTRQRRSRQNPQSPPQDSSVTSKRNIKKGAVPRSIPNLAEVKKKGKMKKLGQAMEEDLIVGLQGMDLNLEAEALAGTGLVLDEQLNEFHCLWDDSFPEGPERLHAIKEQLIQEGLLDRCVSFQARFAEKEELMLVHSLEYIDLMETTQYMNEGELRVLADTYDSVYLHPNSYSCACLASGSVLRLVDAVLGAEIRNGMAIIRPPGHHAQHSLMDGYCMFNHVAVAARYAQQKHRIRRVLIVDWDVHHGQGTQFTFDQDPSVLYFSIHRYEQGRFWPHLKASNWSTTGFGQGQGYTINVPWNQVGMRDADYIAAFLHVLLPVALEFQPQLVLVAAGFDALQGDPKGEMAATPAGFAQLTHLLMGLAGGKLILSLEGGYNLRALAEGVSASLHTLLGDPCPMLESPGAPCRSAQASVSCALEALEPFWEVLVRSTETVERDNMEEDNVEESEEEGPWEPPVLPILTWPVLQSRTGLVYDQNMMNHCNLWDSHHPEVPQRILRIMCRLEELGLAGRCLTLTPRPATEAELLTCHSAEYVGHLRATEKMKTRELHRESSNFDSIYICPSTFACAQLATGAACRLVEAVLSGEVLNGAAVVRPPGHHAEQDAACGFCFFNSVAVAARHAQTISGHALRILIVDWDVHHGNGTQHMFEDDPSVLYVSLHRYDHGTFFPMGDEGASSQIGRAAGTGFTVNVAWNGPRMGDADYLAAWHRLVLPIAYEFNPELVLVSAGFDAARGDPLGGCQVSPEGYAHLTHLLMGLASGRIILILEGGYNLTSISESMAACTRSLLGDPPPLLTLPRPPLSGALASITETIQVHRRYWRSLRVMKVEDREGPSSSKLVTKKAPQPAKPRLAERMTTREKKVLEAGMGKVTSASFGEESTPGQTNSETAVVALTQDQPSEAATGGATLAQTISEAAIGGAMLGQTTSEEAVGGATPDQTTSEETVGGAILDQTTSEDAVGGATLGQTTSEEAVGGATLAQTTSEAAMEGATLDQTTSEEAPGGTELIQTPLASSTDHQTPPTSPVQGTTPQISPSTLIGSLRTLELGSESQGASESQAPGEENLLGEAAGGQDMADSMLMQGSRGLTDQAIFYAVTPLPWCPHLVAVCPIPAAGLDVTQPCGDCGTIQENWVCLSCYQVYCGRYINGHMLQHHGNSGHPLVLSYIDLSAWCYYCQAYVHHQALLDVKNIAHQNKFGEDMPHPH
From the text: Tubulin was used to normalize protein loading.

[10] = test system: RL; experiment: MTT cell viability in RL cells; type: cell-based; conditions: Homo sapiens, 48 h
Method: (§4) HDAC6 protein is expressed in all cell lines examined (FIG. 1A). Ricolinostat was administered to each cell line at various concentrations (0.01, 0.1, 1, 5, and 10 μM), and cell viability was measured at 24, 48, and 72 hours.

[11] = test system: Granta-519; experiment: cells; type: cell-based; conditions: Homo sapiens, MTT
Method: as §1

[12] = test system: tubulin polymerization; experiment: Tubulin polymerization by α-tubulin staining and flow cytometry; conditions: 24 hours, intensity of fluorescence
Method: Data are expressed as mean±SD and were obtained from three independent experiments performed in triplicate.
Lymphoma cells were treated for 24 hours with ricolinostat alone and in combination with bendamustine along with the microtubule destabilizer nocodazole (1 μM) and the microtubule stabilizer paclitaxel (100 nM). This was followed by whole cell-based quantitative measurement of tubulin polymerization using alpha-tubulin staining.

[13] = test system: Karpas-299; experiment: MTT cell viability in Karpas-299 cells; type: cell-based; conditions: Homo sapiens, Karpas-299, 48 h
Method: as §4

[14] = test system: IL-10; experiment: IL-10 secretion by ELISA
Method: IL-10 secretion was analyzed by ELISA. All data are means (±SD) of at least three separate experiments each performed in duplicate.

`Cn1c(CCCC(=O)O)nc2cc(N(CCCl)CCCl)ccc21` [bendamustine, 4-[5-[Bis(2-chloroethyl)amino]-1-methylbenzimidazol-2-yl]butanoic acid] showed an IC50 ([1]; JeKo-1, 24 h, read-out: IC50 at 24 hours) of 127 µM, an IC50 ([2]; 24 h, read-out: IC50 at 24 hours) of 168 µM and an IC50 ([3]; HuT78, 24 h, read-out: IC50 at 24 hours) of 144000 nM. The IC50 ([4]; 24 h, read-out: range of IC50) was 127 to 168 µM.

`O=C(CCCCCCNC(=O)c1cnc(N(c2ccccc2)c2ccccc2)nc1)NO` [ricolinostat, 2-(diphenylamino)-N-(7-(hydroxyamino)-7-oxoheptyl)pyrimidine-5-carboxamide] showed an IC50 ([1]; Jeko-1, 48 h, MTT, read-out: IC50) of 3.42 µM, an IC50 ([2]; 24 h, MTT, read-out: IC50) of 8.65 µM and an IC50 ([2]; 48 h, MTT, read-out: IC50) of 1.97 µM. The IC50 ([3]; HuT78, 48 h, Hut-78, 48 h, MTT, read-out: IC50) was 1510 nM, the IC50 ([3]; HuT78, 48 h, Hut-78, 48 hours, MTT, read-out: IC50) was 1500 nM and the cell cycle distribution [5] was “increase in the percentage of cells in the G0/G1 phase and a decrease in the G2/M phase”. For the same compound, the induction of apoptosis [6] was “induced apoptosis in all cell lines examined in time- and dose dependent manner”, the IC50 ([4]; lymphoma cell lines, exposure 24-72 hours, read-out: IC50 values ranging) was 0.17 to 8.65 µM and the IC50 ([4]; panel of six lymphoma cell lines, 24 and 48 h, read-out: IC50 values ranging) was 1.51 to 64 µM. The “clonogenic survival / colony formation” value [7] was “reduced clonogenic survival in a dose dependent manner”, the ROS generation [8] was “induced an increase of ROS production at 24 h, which further increased after 48 h” and the “HDAC6 expression and acetylation level of α-tubulin” value [9] was “reduced HDAC6 expression and induced the acetylation level of α-tubulin”. It also gave an IC50 [10] of 3.37 µM, an IC50 ([11]; Granta-519, 24 h) of 64 µM and an IC50 ([11]; Granta-519, 48 h) of 20 µM. For the same compound, the tubulin polymerization [12] was “induced tubulin polymerization”, the IC50 [13] was 4.82 µM and the IL-10 secretion [14] was “down-regulation of IL-10”.
